Like-named read-outs stand apart in the source and are kept apart here.
Legend:
[1] = tested on: 3D7 P. falciparum parasites; assay: Growth inhibition assay (72 h, LDH activity); type: cell-based, Plasmodium falciparum; conditions: for inhibition / EC50: Plasmodium falciparum; for inhibition: 3D7, 3D7, read-out: NORMALISED (growth inhibition, LDH absorbance)
Method in brief: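 Synchronised ring-stage P. falciparum (0.3-0.6% parasitemia, 2% haematocrit) grown 72 h in serial compound dilutions, sometimes with 0, 0.25 or 2.5 mM glucosamine. Growth read as LDH activity (Malstat/NBT, A650) after freeze-thaw, normalised to DMSO and uninfected RBC. EC50 by nonlinear regression.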

[2] = tested on: PopD-D7 M-833 resistant clone (PfSTART1 N309K); assay: Growth inhibition assay (72 h, LDH activity); type: cell-based, Plasmodium falciparum
Method in brief: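 Synchronised ring-stage 3D7-derived clones (0.3-0.6% parasitemia, 2% haematocrit) grown 72 h in compound serial dilutions, some with 0, 0.25 or 2.5 mM glucosamine. Growth read as LDH activity after freeze-thaw (Malstat/NBT, A650), normalised to DMSO and uninfected RBC; EC50 from variable-slope log(inhibitor) fit.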

in vitro = conditions: human

CC(C)(Nc1ccc(Cl)c(S(=O)(=O)N2CCOCC2)c1)C(=O)Nc1ccc(F)c(Cl)c1 [W-991]
inhibition ([1]; 0.25 mM GlcN, dilution point 1 of 10, starting concentration 100 nM): 94.1%
inhibition ([1]; 0.25 mM GlcN, dilution point 2 of 10 from starting concentration 100 nM): 94.3%
inhibition ([1]; 0.25 mM GlcN, dilution point 3 of 10 from starting concentration 100 nM): 95.3%
inhibition ([1]; 0.25 mM GlcN, dilution point 4 of 10 from starting concentration 100 nM): 91.5%
inhibition ([1]; 2.5 mM GlcN, dilution point 1 of 10, starting concentration 100 nM): 89.4%
inhibition ([1]; 2.5 mM GlcN, dilution point 2 of 10 from starting concentration 100 nM): 91.3%
inhibition ([1]; 2.5 mM GlcN, dilution point 3 of 10 from starting concentration 100 nM): 88.4%
inhibition ([1]; 2.5 mM GlcN, dilution point 4 of 10 from starting concentration 100 nM): 86.4%
inhibition ([1]; 2.5 mM GlcN, dilution point 5 of 10 from starting concentration 100 nM): 65.7%
inhibition ([1]; 2.5 mM GlcN, dilution point 6 of 10 from starting concentration 100 nM): 40.2%
EC50 ([1]; 3D7, 72 h, Supplementary Table 1, 3D7, 72 h, read-out: EC50): 0.72 nM
EC50 ([1]; 3D7, Fig 4C, 3D7, 0 mM GlcN, n = 3, read-out: EC50 W-991 (95% confidence interval)): 0.942 nM
EC50 ([1]; 3D7, Fig 4C, 3D7, 0.25 mM GlcN, n = 3, read-out: EC50 W-991 (95% confidence interval)): 0.908 nM
EC50 ([1]; 3D7, Fig 4C, 3D7, 2.5 mM GlcN, n = 3, read-out: EC50 W-991 (95% confidence interval)): 0.787 nM
EC50 ([1]; 3D7, text on structure activity relationship (Fig 4A), read-out: EC50, antiparasitic activity): 7 nM
effect of GlcN addition on EC50 ([1]; control 3D7, Fig 4C): did not change the EC50
EC50 ([2]; Plasmodium falciparum, Supplementary Table 1, PopD-D7 (N309K), 72 h, read-out: EC50): > 200 nM
resistance of the line compared with 3D7 ([2]; PopD-D7 (N309K), Fig 4B): highly resistant
(av-uRBC) / (DMSO-uRBC) x100 ([2]; PopD-D7, 0.0762079 nM, biological replicate 1): 96.5635
(av-uRBC) / (DMSO-uRBC) x100 ([2]; PopD-D7, 0.0762079 nM, biological replicate 2): 102.6
(av-uRBC) / (DMSO-uRBC) x100 ([2]; PopD-D7, 0.0762079 nM, biological replicate 3): 87.8712
(av-uRBC) / (DMSO-uRBC) x100 ([2]; PopD-D7, 0.228624 nM, biological replicate 1): 100.291
(av-uRBC) / (DMSO-uRBC) x100 ([2]; PopD-D7, 0.228624 nM, biological replicate 2): 103.59
(av-uRBC) / (DMSO-uRBC) x100 ([2]; PopD-D7, 0.228624 nM, biological replicate 3): 90.7443
(av-uRBC) / (DMSO-uRBC) x100 ([2]; PopD-D7, 0.685871 nM, biological replicate 1): 102.374
(av-uRBC) / (DMSO-uRBC) x100 ([2]; PopD-D7, 0.685871 nM, biological replicate 2): 101.183
(av-uRBC) / (DMSO-uRBC) x100 ([2]; PopD-D7, 0.685871 nM, biological replicate 3): 89.0089
(av-uRBC) / (DMSO-uRBC) x100 ([2]; PopD-D7, 2.05761 nM, biological replicate 1): 98.4575
(av-uRBC) / (DMSO-uRBC) x100 ([2]; PopD-D7, 2.05761 nM, biological replicate 2): 102.962
(av-uRBC) / (DMSO-uRBC) x100 ([2]; PopD-D7, 2.05761 nM, biological replicate 3): 86.5214
(av-uRBC) / (DMSO-uRBC) x100 ([2]; PopD-D7, 6.17284 nM, biological replicate 1): 97.3005
(av-uRBC) / (DMSO-uRBC) x100 ([2]; PopD-D7, 6.17284 nM, biological replicate 2): 103.791
(av-uRBC) / (DMSO-uRBC) x100 ([2]; PopD-D7, 6.17284 nM, biological replicate 3): 87.2349
(av-uRBC) / (DMSO-uRBC) x100 ([2]; PopD-D7, 18.5185 nM, biological replicate 1): 94.5325
(av-uRBC) / (DMSO-uRBC) x100 ([2]; PopD-D7, 18.5185 nM, biological replicate 2): 103.019
(av-uRBC) / (DMSO-uRBC) x100 ([2]; PopD-D7, 18.5185 nM, biological replicate 3): 88.7968
(av-uRBC) / (DMSO-uRBC) x100 ([2]; PopD-D7, 55.5556 nM, biological replicate 1): 87.2483
(av-uRBC) / (DMSO-uRBC) x100 ([2]; PopD-D7, 55.5556 nM, biological replicate 2): 102.262
(av-uRBC) / (DMSO-uRBC) x100 ([2]; PopD-D7, 55.5556 nM, biological replicate 3): 77.42
(av-uRBC) / (DMSO-uRBC) x100 ([2]; PopD-D7, conc. 166.667 nM, Biological replicate 1 (2021-10-25)): 74.488
(av-uRBC) / (DMSO-uRBC) x100 ([2]; PopD-D7, conc. 166.667 nM, Biological replicate 2 (2021-11-03)): 97.8669
(av-uRBC) / (DMSO-uRBC) x100 ([2]; PopD-D7, conc. 166.667 nM, Biological replicate 3 (2021-11-11)): 58.6579
(av-uRBC) / (DMSO-uRBC) x100 ([2]; PopD-D7, conc. 500 nM, Biological replicate 1 (2021-10-25)): 40.3034
(av-uRBC) / (DMSO-uRBC) x100 ([2]; PopD-D7, conc. 500 nM, Biological replicate 2 (2021-11-03)): 75.4488
(av-uRBC) / (DMSO-uRBC) x100 ([2]; PopD-D7, conc. 500 nM, Biological replicate 3 (2021-11-11)): 31.855
Fold change compared to 3D7 ([2]; Supplementary Table 1, EC50 on PopD-D7 vs 3D7): > 278 fold
CC50 (in vitro): 29 µM
